From the supplement of paper PMC5579334
± gives the standard deviation of the averaged measurements.

Tests used:
[1] = system: YST-1; test: % inhibition of CellTiter-Glo viability at highest tested concentration (72 h), relative to DMSO and benzethonium chloride controls; higher = more inhibition
Procedure, shortened: (§1)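 After seeding 750–1000 cells per well of MPNST cell lines or primary human Schwann cells into 384-well plates preprinted with each compound at five concentrations in 10-fold steps, plates were kept 72 h at 37 °C, 5% CO2. Viability was read as CellTiter-Glo ATP luminescence relative to vehicle and positive-control wells, with duplicates averaged where present. The data were fitted with four-parameter logistic models. Drug sensitivity score and relative IC50, censored at the top concentration, derive from the fits, and percent inhibition refers to the top concentration.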

[2] = system: S462; test: as above
Procedure, shortened: as §1

[3] = system: HSC2 (primary human Schwann cells); test: as above
Procedure, shortened: as §1

[4] = system: S1507-2; test: as above
Procedure, shortened: as §1

[5] = system: HS-PSS; test: as above
Procedure, shortened: as §1

[6] = system: HSC1 (primary human Schwann cells); test: as above
Procedure, shortened: as §1

[7] = system: ST8814; test: as above
Procedure, shortened: as §1

[8] = system: HS-Sch-2; test: as above
Procedure, shortened: as §1

[9] = system: STS26T; test: as above
Procedure, shortened: as §1

[10] = system: HSC2 (primary human Schwann cells); test: drug sensitivity score (DSS, CellTox-Green cytotoxicity, 72 h) (DSS (dimensionless)); higher = more cytotoxic; extreme values may be limits of the assay
Procedure, shortened: (§2)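 For 72 h at 37 °C, MPNST cell lines and primary human Schwann cells were exposed in 384-well plates to five 10-fold compound dilutions. CellTox-Green, added before seeding at a final 1:1000 dilution, gave fluorescence from DNA released by disrupted cells. Signals were scaled to vehicle and positive-control wells, cultures failing plate quality control were left out, and four-parameter logistic fits were applied. Relative IC50 and drug sensitivity score were derived from the fits, with IC50 censored at the top concentration.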

[11] = system: S1507-2; test: as above
Procedure, shortened: as §2

[12] = system: HS-PSS; test: as above
Procedure, shortened: as §2

[13] = system: HSC1 (primary human Schwann cells); test: as above
Procedure, shortened: as §2

[14] = system: ST8814; test: as above
Procedure, shortened: as §2

[15] = system: STS26T; test: as above
Procedure, shortened: as §2

[16] = system: YST-1; test: drug sensitivity score (DSS, CellTiter-Glo viability, 72 h) (DSS (dimensionless)); higher = more sensitive; extreme values may be limits of the assay
Procedure, shortened: as §1

[17] = system: S462; test: as above
Procedure, shortened: as §1

[18] = system: HSC2 (primary human Schwann cells); test: as above
Procedure, shortened: as §1

[19] = system: S1507-2; test: as above
Procedure, shortened: as §1

[20] = system: HS-PSS; test: as above
Procedure, shortened: as §1

[21] = system: HSC1 (primary human Schwann cells); test: as above
Procedure, shortened: as §1

[22] = system: ST8814; test: as above
Procedure, shortened: as §1

[23] = system: HS-Sch-2; test: as above
Procedure, shortened: as §1

[24] = system: STS26T; test: as above
Procedure, shortened: as §1

Row | Compound | % inhibition [1] | % inhibition [2] | % inhibition [3] | % inhibition [4] | % inhibition [5] | % inhibition [6] | % inhibition [7] | % inhibition [8] | % inhibition [9] | drug sensitivity score [10] | drug sensitivity score [11] | drug sensitivity score [12] | drug sensitivity score [13] | drug sensitivity score [14] | drug sensitivity score [15] | drug sensitivity score [16] | drug sensitivity score [17] | drug sensitivity score [18] | drug sensitivity score [19] | drug sensitivity score [20] | drug sensitivity score [21] | drug sensitivity score [22] | drug sensitivity score [23] | drug sensitivity score [24]
1 | CCC1(c2ccc(N)cc2)CCC(=O)NC1=O (stereo not drawn) [Aminoglutethimide] (max concentration tested 10000 nM) | -9.69% | -7.67 ± 7.8% | -6.11% | 3.35 ± 1.2% | 1.47% | 8.78% | -3.31% | 3.62% | 2.67% | 0 | 0 | 0 | 0 | 0 | 0 | 0 | 0 | 0 | 0 | 0 | 0 | 0 | 0 | 0
2 | C=CC(=O)Nc1cc2c(Nc3ccc(F)c(Cl)c3)ncnc2cc1OCCCN1CCOCC1 [Canertinib] (max concentration tested 10000 nM) | 96.3% | 96.1 ± 0.97% | 96.2% | 87.9 ± 0.97% | 88.7% | 96.6% | 96.3% | 94.2% | 96.5% | 8 | 5.1 ± 0.58 | 3.38 | 7.58 | 4.72 | 4.76 | 5.36 | 6.03 ± 1 | 7.63 | 7.98 ± 0.98 | 6.16 | 8.87 | 8.06 | 6.37 | 7.19
3 | CO[C@H]1C[C@@H]2CC[C@@H](C)[C@@](O)(O2)C(=O)C(=O)N2CCCC[C@H]2C(=O)O[C@H]([C@H](C)C[C@@H]2CC[C@@H](O)[C@H](OC)C2)CC(=O)[C@H](C)/C=C(\C)[C@@H](O)[C@@H](OC)C(=O)[C@H](C)C[C@H](C)/C=C/C=C/C=C/1C [Sirolimus] (max concentration tested 100 nM) | 45.1% | 1.96 ± 4.9% | 23.2% | 5.52 ± 9% | 32.9% | 24.6% | 14.7% | 29.1% | 27.9% | 0 | 0.0997 ± 0.14 | 0 | 0 | 0 | 0 | 6.14 | 0 | 1.62 | 0.128 ± 0.18 | 4.11 | 0.673 | 0.411 | 3.47 | 1.7
4 | CC[C@]1(O)C[C@@H]2CN(CCc3c([nH]c4ccccc34)[C@@](C(=O)OC)(c3cc4c(cc3OC)N(C)[C@H]3[C@@](O)(C(=O)OC)[C@H](OC(C)=O)[C@]5(CC)C=CCN6CC[C@]43[C@@H]65)C2)C1 [Vinblastine] (max concentration tested 1000 nM) | 83.8% | 93.02 ± 0.22% | 87% | 81.1 ± 2.3% | 67.2% | 76% | 84.7% | 91.9% | 92.4% | 21.5 | 19.7 ± 1.8 | 1.24 | 10.7 | 31.1 | 32.9 | 24.8 | 29.53 ± 0.036 | 23.9 | 22.63 ± 0.18 | 16.2 | 19.5 | 26.8 | 30 | 30.1
5 | C[C@]12CC[C@@H]3c4ccc(O)cc4C[C@@H](CCCCCCCCC[S+]([O-])CCCC(F)(F)C(F)(F)F)[C@H]3[C@@H]1CC[C@@H]2O (stereo partly drawn) [Fulvestrant] (max concentration tested 1000 nM) | 1.11% | 6.51 ± 4.8% | 18.2% | -11.9 ± 2.2% | 10.3% | 11.4% | -2.59% | 8.02% | 4.69% | 0 | 1.33 ± 1.9 | 0 | 0 | 0 | 0 | 0 | 0 | 0.538 | 0 | 0 | 0.178 | 0 | 0 | 0
6 | CN1CCN(CCOc2cc(OC3CCOCC3)c3c(Nc4c(Cl)ccc5c4OCO5)ncnc3c2)CC1 [Saracatinib] (max concentration tested 10000 nM) | 14.6% | 36.2 ± 0.27% | 37.1% | 74.8 ± 2.1% | 67.5% | 50.3% | 55.2% | 51.7% | 50.2% | 6.91 | 9.49 ± 1.6 | 1.13 | 0 | 5.67 | 1.58 | 0.09 | 3.91 ± 0.7 | 3.21 | 7.04 ± 1.5 | 6.08 | 7.06 | 5.63 | 3.07 | 5.09
7 | CO[C@H]1C[C@@H]2CC[C@@H](C)[C@@](O)(O2)C(=O)C(=O)N2CCCC[C@H]2C(=O)O[C@H]([C@H](C)C[C@@H]2CC[C@@H](OP(C)(C)=O)[C@H](OC)C2)CC(=O)[C@H](C)/C=C(\C)[C@@H](O)[C@@H](OC)C(=O)[C@H](C)C[C@H](C)/C=C/C=C/C=C/1C [Ridaforolimus] (max concentration tested 100 nM) | 43.6% | 40.4 ± 5.1% | 52.6% | 35.9 ± 0.46% | 28.6% | 51.5% | 32.1% | 31% | 48.8% | 0 | 0 | 0 | 0 | 0 | 0 | 9.63 | 8.13 ± 1.3 | 15.8 | 7.07 ± 0.28 | 5.02 | 16.8 | 8.41 | 4.49 | 13.1
8 | O=C(Nc1cccnc1)N1CCC(Cc2cccc(Oc3ccc(C(F)(F)F)cn3)c2)CC1 [PF-3845] (max concentration tested 10000 nM) | 25.5% | 20.3 ± 0.84% | 35.3% | 2.03 ± 3.1% | 79.6% | 33.5% | 11.5% | 79% | 24.2% | 0.053 | 0 | 0 | 0 | 0 | 0 | 0.86 | 0.985 ± 0.1 | 3.19 | 0 | 7.9 | 2.77 | 0.0881 | 4.52 | 1.18
9 | Nc1ncn([C@@H]2O[C@H](CO)[C@@H](O)[C@H]2O)c(=O)n1 [Azacitidine] (max concentration tested 10000 nM) | 22.1% | 34.5 ± 9.2% | 68.2% | 3.07 ± 2.9% | 15.6% | 75.2% | 12.4% | 10.9% | 29.9% | 0 | 2.61 ± 3.7 | 0 | 0 | 0 | 0 | 0.39 | 2.02 ± 0.98 | 3.59 | 0 | 0.1 | 5.39 | 0.0452 | 0 | 1.02
10 | CC(=O)OC[C@H]1O[C@@H]([S-])[C@H](OC(C)=O)[C@@H](OC(C)=O)[C@@H]1OC(C)=O.CCP(CC)CC.[Au+] [Auranofin] (max concentration tested 2500 nM) | 91.7% | 94.62 ± 0.92% | 95.2% | 25.1 ± 9.3% | 75.4% | 94.8% | 66.9% | 99.9% | 79.9% | 7.25 | 0.0037 ± 0.0052 | 1.15 | 7.83 | 0.171 | 3.5 | 5.04 | 8.14 ± 2 | 8.02 | 1.36 ± 1 | 4.86 | 8.86 | 3.73 | 9.71 | 5.55
11 | Nc1ncnc2c1c(COc1cccc(Cl)c1)nn2C1CCOCC1 (max concentration tested 10000 nM) | 9.51% | -3.41 ± 5.9% | -5.42% | 9.42 ± 7.2% | 7.3% | 11.5% | 5.84% | 12.5% | 18.3% | 0 | 0.494 ± 0.64 | 0 | 0 | 0 | 0 | 0 | 0 | 0 | 0.0549 ± 0.078 | 0 | 0.203 | 0 | 0.64 | 0.587
12 | Nc1ncnc2c1nc(Cl)n2[C@@H]1O[C@H](CO)[C@@H](O)[C@H]1O [8-chloro-adenosine] (max concentration tested 50000 nM) | 88.6% | 82.1 ± 4.6% | 73.7% | 74 ± 0.56% | 55.6% | 73.8% | 54.5% | 80% | 86.8% | 0 | 1.46 ± 1.7 | 0 | 0 | 0.449 | 6.31 | 12.9 | 14.21 ± 0.085 | 9.83 | 12.4 ± 2.1 | 5.54 | 9.38 | 9.48 | 11.1 | 12.3
